Test results taken from US20230047208A1, “RNA Splicing Modulation” (The General Hospital Corporation, priority 2020, published 2023).

Key:
CFTR c.2988G>A = experiment: CFTR exon 18 inclusion, RT-PCR in Flp-In-293 stable cells expressing c.2988G>A CFTR-EMG-i14-i18; type: cell-based, human; settings: Flp-In-293 c.2988G>A, 60 μM, 5 days
Experimental: HEK-293 cells stably transfected with the expression minigenes (EMGs) for the full-length coding sequence and flanking intron sequence of the Cystic Fibrosis Transmembrane Conductance Regulator (CFTR) (courtesy of Dr. Garry R. Cutting, Johns Hopkins University school of Medicine, Baltimore, Md.) were cultured in D-MEM supplemented with 10% FBS (FBS), 1% penicillin/streptomycin and 0.1 mg/mL Hygromycin (SIGMA).
After treatment, the cells were collected and RNA was extracted with QIAzol Lysis Reagent (79306, Qiagen) following the manufacturer's instructions. The yields of the total RNA for each sample were determined using a Nanodrop ND-1000 spectrophotometer. […]
Ratios between isoforms having the middle exon included or excluded were obtained using the integrated density value (IDV) for each correspondent band, and then assessed using Alpha 2000™ Image Analyzer and quantified by ImageJ software. The level of exon inclusion was calculated as previously described^4, where the relative density value of the band represents inclusion and is expressed as a percentage. Validation of the semi-quantitative RT-PCR method for the measurement of exon inclusion was performed using RT-qPCR^4. […]

MAPT exon 10 = experiment: MAPT minigene exon 10 splicing in transfected cell lines; type: cell-based; settings: 60 μM, 24 hours, MAPT minigenes, all three mutations tested
Excerpt: FIGS. 4C-4F Upper row: The sequences at the 5′ splice site of Exon X in patient cells and minigene constructs are shown (FIGS. 4C-4F). The sequences around the 5′ splice site of Exon X are shown in LOGO plots, with the closely matched CNN motifs indicated beneath the plots. […] Middle row: RT-PCR experiments validated treatment responses in patient cell lines carrying specific splice site mutations. The upper bands indicate the isoform in which the middle Exon X is included while the lower bands indicate the isoform in which the middle Exon X is skipped. Each set of gels is one of the triplicates used to generate the bar plots beneath. […] The statistical significance, as shown in FIGS. 4C-4F, was determined via two-tailed, unpaired Student's test: *p<0.05; **p<0.01; ***p<0.001.
In another example from Table 18, several MAPT minigenes encompassing exons 9 to 11 and flanking exon 10 intronic sequences, with the three mutations listed in Table 17: c.1866+3 G>A, c.1865 G>A or c.1788 T>G were prepared. These mutations were predicted by SpliceA1 to promote inclusion of MAPT exon 10. […] An increase in MAPT exon 10 inclusion is responsible for familial frontotemporal dementia and Parkinsonism linked to chromosome 17 (FTDP-17, MIM #600274). […]

Clc1nc(NCc2ccncc2)c2cc[nH]c2n1 [Compound (I), 2-chloro-N-(pyridin-4-ylmethyl)-7H-pyrrolo[2,3-d]pyrimidin-4-amine]
increase of CFTR exon 18 inclusion (CFTR c.2988G>A): 10%
exon 10 splicing (MAPT exon 10): significantly promoted exon 10 exclusion
